Measurements reported in PubChem BioAssay AID179 (DTP/NCI, 2004).
Several values for one entry are separate records, joined by “and”; a condition that tells them apart may be missing. Equal values may be shown once. Activity calls are given as the source filed them.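 Rule for the calls: active = compounds giving half or more protection of infected cells from virus-caused growth loss, again on retest; inactive = the rest.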 Where a SMILES comes first, the peptide text is derived from it.

Tested on: CEM cells HIV-1 protection, formazan growth assay
Experiment: NCI AIDS Antiviral Assay
Settings: for IC50: measured here: growth of uninfected CEM cells
Outline: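 Human CEM cells, uninfected and HIV-1-infected, received five drug concentrations, and growth was read by soluble formazan assay. Compounds giving at least 50% protection were retested; reproducible 100% protection defined confirmed active.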

Row | SMILES | EC50 [µM] | IC50 | outcome
1 | CN(C)CCNc1ccc(CO)c2oc3ccc(O)cc3c(=O)c12 | > 398 | 1.15 µM | –
2 | Sc1ccccc1N=Cc1ccc(C=Nc2ccccc2S)cc1 | > 200 | > 200 µM | –
3 | O=C(/C=C(\N=P(c1ccccc1)(c1ccccc1)c1ccccc1)C(F)(F)C(F)(F)C(F)(F)C(F)(F)C(F)(F)C(F)(F)C(F)(F)F)c1ccccc1 | > 200 | > 200 µM | –
4 | COC(=O)[C@@H]1CSC(=S)N1C(=O)C[C@H]1CC=CC[C@H]1CC(=O)Sc1ccccc1 | – | – | inactive
5 | O=S(CC1(O)CCCCC1)c1ccccc1 (centres undefined) | – | – | inactive
6 | Cc1ccc(C2=NO[C@@H]3C(=O)N(c4ccc(Cc5ccc(N6C(=O)[C@H]7C(c8ccc(C)cc8)=NO[C@H]7C6=O)cc5)cc4)C(=O)[C@H]23)cc1 | > 11.5 | > 11.5 µM | –
7 | OCC12C3C4C1C1C2C3C41CO (centres undefined) | > 1510 | > 1510 µM | –
8 | O=C(OC1CC(OC(=O)c2cc(O)c(O)c(O)c2)(C(=O)O)C[C@H](OC(=O)c2cc(O)c(O)c(O)c2)C1OC(=O)c1cc(O)c(O)c(O)c1)c1cc(O)c(O)c(O)c1 (some centres undefined) | – | – | inactive
9 | CCn1c(=O)c2nc(SC)sc2n(-c2ccc(C)cc2)c1=O | – | – | inactive
10 | COc1ccc(S(=O)(=O)N[C@@H](C(=O)O)c2ccccc2)cc1 | – | – | inactive
11 | Nc1nc(-c2ccco2)cc(-c2ccco2)n1 | > 115 | > 115 µM | –
12 | COCC(=O)OC1CCn2c1nc1c2C(=O)C(C)=C(NC(C)=O)C1=N (centres undefined) | > 200 | 2.88 µM | –
13 | CSc1nc(N)c2c(n1)NCNS2(=O)=O | > 1000 | > 1000 µM | –
14 | CC[C@H]1CN2CCc3cc(OC)c(OC)cc3[C@@H]2C[C@@H]1C[C@H]1NCCc2cc(OC)c(OC)cc21 | – | – | inactive
15 | O=C1C(=O)C(Br)(Br)C(Br)=C1Br | – | – | inactive
16 | O=C1[C@H](Cl)[C@H]2c3cc4ccccc4nc3Oc3ccccc3N12 | > 22.4 | > 22.4 µM | –
17 | Cc1ccccc1NC(=O)C(=O)CC(=O)C1CCOC1=O (centres undefined) | – | – | inactive
18 | O=C1C(=O)N(c2ccc(Cl)c(Cl)c2)C(=O)C(=O)C1c1nc2ccccc2s1 | – | – | inactive
19 | C(/C=N/NC1=NCCCN1)=N\NC1=NCCCN1 | 162 | > 200 µM | –
20 | Cc1c(Cl)ccc2c1NC(=O)C2(O)CC(=O)c1ccc(Cl)cc1 (centres undefined) | > 31.6 | > 31.6 µM | –
21 | CC(=O)Oc1cc(S(=O)(=O)Nc2n[nH]c(Nc3ccc(C)cc3)n2)c(S)cc1Cl | 155 | 263 µM | –

Row | SMILES | EC50 [µM] | IC50 | outcome
22 | N#CN=C(N)NC(=O)c1ccccc1 | – | – | inactive
23 | CC(C)CCn1c(=O)c2c(=O)[nH][nH]c2c2ccccc21 | > 200 | > 200 µM | –
24 | c1cnn(C23C4C5C6C4C2C6C53)c1 (centres undefined) | > 200 | > 200 µM | –
25 | C=C(C)C(C)(C)n1[nH]c(=O)n(-c2ccccc2)c1=O | > 200 | > 200 µM | –
26 | O=C1C2CCN(CC2)C1CN1CCOCC1 (centres undefined) | – | – | inactive
27 | COc1ccc(-c2c3c(n(C4OC(CO)C(O)C(O)C4O)c(=S)c2C#N)CCCC3)cc1 (centres undefined) | > 200 | 55 µM | –
28 | C/C(CC1C2CCCC1C2)=N\NC(N)=O (centres undefined) | > 100 | > 100 µM | –
29 | O=[N+]([O-])c1cccc2nccc(NCCN3CCOCC3)c12 | > 200 | 10 µM | –
30 | S=c1[nH]n2c(CCCCCCCCc3nnc4sc(=S)[nH]n34)nnc2s1 | 123 | 178 µM | –
31 | CCOc1nnnc2nc[nH]c12 | > 200 | 70.8 µM | –
32 | CC(C)(C)N1C(=O)N=[N+](/C(=C(\c2ccccc2)n2nc([O-])n(C(C)(C)C)c2=O)c2ccccc2)C1=O | > 100 | > 100 µM | –
33 | CCCc1ccc(OC2OC(CO)C(O)C(O)C2O)cc1 (centres undefined) | > 302 | > 302 µM and 85.1 µM | –
34 | COc1cc2c(cc1OC)C13CCN4CC5=CCOC(CC(=O)O)C(C5CC41)C3N2 (centres undefined) | 25.7 | 151 µM | –
35 | Cc1cc2n([O-])cccc-2[n+](=O)c1 | > 200 | > 200 µM | –
36 | O=c1c(N(CCO)CCO)cn(C(c2ccccc2)(c2ccccc2)c2ccccc2)c(=O)n1C(c1ccccc1)(c1ccccc1)c1ccccc1 | > 200 | 3.02 µM | –
37 | Nc1ccc2cc(S(=O)(=O)O)cc(O)c2c1N=Nc1ccc(NC(=O)c2ccc(C(=O)Nc3ccc(N=Nc4c(N)ccc5cc(S(=O)(=O)O)cc(O)c45)c(S(=O)(=O)O)c3)cc2)cc1S(=O)(=O)O | – | – | active
38 | CC(=C/c1ccccc1)/C=C1/NC(=S)N(/C=C2\C(=O)Oc3ccccc3C2=O)C1=O | > 200 | > 200 µM | –
39 | COCn1cnc2c(=O)n(-c3ccc(OC)cc3)c(=S)n(-c3ccc(OC)cc3)c21 | > 200 | > 200 µM | –
40 | CCCCCC(Nc1nncs1)Nc1nncs1 | > 200 | > 200 µM | –
41 | O=c1c(-c2ccc(O)c(O)c2)coc2cc(O)c(O)cc12 | > 200 | 24.5 µM | –
42 | COc1cc(N(C)C)c(OC)cc1/C=C1\C=Cc2ccccc21 | > 17 | > 17 µM | –

Row | SMILES | EC50 [µM] | IC50 | outcome
43 | OC(CN(CCCl)CCCl)C(O)C(O)C(O)CN(CCCl)CCCl (centres undefined) | – | – | inactive
44 | CN(C(=O)C12C3C4C1C1C2C3C41C#N)C(C)(C)C (centres undefined) | > 41.7 | > 41.7 µM | –
45 | CC(NC(=O)C1CCCN1C(=O)OC(C)(C)C)C(=O)OCc1ccccc1 (centres undefined) | > 95.5 | 60.3 µM | –
46 | COC(=O)c1c(C(=O)OC)c(C(=O)OC)c2c([nH]c3ccccc32)c1C(=O)OC | – | – | inactive
47 | O=[N+]([O-])c1ccc(Cl)c([N+](=O)[O-])c1 | > 200 | 3.31 µM | –
48 | CC1C/C(=C\c2ccc(OC(=O)C(C)(C)C)cc2)C(=O)/C(=C/c2ccc(OC(=O)C(C)(C)C)cc2)C1 (centres undefined) | > 50.1 | 22.4 µM | –
49 | Cc1ccc(S(=O)(=O)Oc2ccc3oc4c(CO)ccc(NCCN(C)C)c4c(=O)c3c2)cc1 | > 38.9 | 6.92 µM | –
50 | COCCN(CCNC(=O)c1cccc2c(N)c3cccc(C)c3nc12)CCOC | > 2 | 0.269 µM | –
51 | C=CCN(N=O)C(=O)NCCCC(NC(C)=O)C(=O)NCc1ccccc1 (centres undefined) | > 661 | > 661 µM | –
52 | Cn1cc(NC(=O)Nc2cc(C(=O)Nc3cc(C(=O)Nc4ccc5c(S(=O)(=O)O)cccc5c4S(=O)(=O)O)n(C)c3)n(C)c2)cc1C(=O)Nc1cc(C(=O)Nc2ccc3c(S(=O)(=O)O)cccc3c2S(=O)(=O)O)n(C)c1 | 22.9 | 148 µM | –
53 | NCC1OC(OC2C(N)CC(N)C(O)C2O)C(NC(=O)c2ccccc2)C(O)C1O (centres undefined) | – | – | inactive
54 | CC(=O)OC[C@]1(C)C2C=C[C@@H]3C4(CC[C@]5(C)C(C(C)N(C)C)[C@H](O)CC35C)CC24CC[C@@H]1N(C)C (some centres undefined) | – | – | inactive
55 | CN(C)CCn1c(=O)c2ccc(NCCNCCO)c3c(=O)c4ccccc4n(c1=O)c23 | > 0.2 | 0.0112 µM | –
56 | O=C1CCCC(=O)NNC(=O)Nc2ccc(cc2)Cc2ccc(cc2)NC(=O)NN1 | > 30.9 | > 30.9 µM | –
57 | N#CCCC1(CCC#N)CCCCCCC(CCC#N)(CCC#N)C(O)C1O (centres undefined) | > 200 | > 200 µM | –
58 | Cn1c2ccccc2c(=O)c2c(O)cc3c(c21)N=CC(C)(C)O3 | – | – | inactive
59 | Cc1ccc2nc(NS(=O)(=O)c3cc(C)c(Cl)cc3S)[nH]c2c1 | > 200 | > 200 µM | –
60 | CSc1nc(Br)nc2c1ncn2C1CC(Oc2ccc(C)cc2)C(COc2ccc(C)cc2)O1 (centres undefined) | > 200 | 79.4 µM | –
61 | CN1CN(c2ccccc2)C2(CCN(CC(C)(c3ccc(F)cc3)C3OCCCO3)CC2)C1=O (centres undefined) | > 200 | 107 µM | –
62 | COc1cc(C2SCC(=O)N2c2ccc(Oc3ccc(Cl)cc3)c(Cl)c2)cc(OC)c1OC (centres undefined) | > 200 | 20 µM | –
63 | CSSCc1ccccc1 | > 200 | 19.1 µM | –

Row | SMILES | EC50 [µM] | IC50 | outcome
64 | CC(C)(NC(=O)OCc1ccccc1)C(=O)NC(Cc1ccccc1)C(=O)O (centres undefined) (HELM PEPTIDE1{[O=C(OCc1ccccc1)[*:2]].[Aib].[O=C(O)C(Cc1ccccc1)N[*:1]]}$$$$V2.0) | > 200 | > 200 µM | –
65 | CCOC(=O)c1c(OCCCc2ccc(F)cc2)cc2ccc3ccccc3c2c1OCCCc1ccc(F)cc1 | > 18.2 | > 18.2 µM | –
66 | COc1ccc(N2C(=O)[C@@H]3[C@H](C2=O)c2[nH]c4ccccc4c2C2CCC(C(C)(C)C)C[C@@H]23)cc1 (some centres undefined) | > 28.2 | > 28.2 µM | –
67 | Cc1sc(Nc2ccccc2[N+](=O)[O-])c(C#N)c1C | 15.5 | > 200 µM | –
68 | COc1ccc(OC)c(NC(=O)C(=O)CC(=O)c2sc(-n3nc(-c4ccccc4)cc3-c3ccccc3)nc2C)c1 | > 437 | 363 µM | –
69 | CC(=O)/C=C/CCC(=O)/C=C/C(=O)OC(CCC(=O)/C=C/C(=O)O)CC(C)=O (centres undefined) | > 200 | 115 µM | –
70 | O=C(O)CC(NC(=O)Nc1ccc([N+](=O)[O-])cc1)C(=O)Nc1ccc([N+](=O)[O-])cc1 (centres undefined) | > 200 | > 200 µM | –
71 | CCOC(=O)CC(SP1(=S)OCC2(CC=CCC2)CO1)C(=O)OCC (centres undefined) | > 200 | 93.3 µM | –
72 | CCCCCCCC(=O)OCC1OC(OC)C(NC(=O)N(CCCl)N=O)C(O)C1O (centres undefined) | > 79.4 | 8.51 µM | –
73 | C#CCN(Cc1ccc2nc(OC)c(OC)nc2c1)c1cc(OC)c(OC)c(OC)c1 | > 200 | 11.2 µM | –
74 | O=C1CCC(c2nc3ccccc3o2)C(=O)N1 (centres undefined) | > 1070 | > 1070 µM | –
75 | COc1cc(C2SC(N)=Nc3c2c(C)nn3C(=O)c2ccc(Cl)cc2)ccc1O (centres undefined) | > 200 | > 200 µM | –
76 | COc1cc(OC)cc(Oc2nc3ccccc3nc2C(=O)O)c1 | > 200 | > 200 µM | –
77 | O=C(OCc1ccccc1)c1ccc(NCc2cc(O)ccc2O)cc1 | – | – | inactive
78 | CC(/C=N/NC1=NCCCCN1)=N\NC1=NCCCCN1 | > 200 | 120 µM | –
79 | Cc1cc(NC(=O)NC/C(Cl)=C/Cl)c2ccccc2n1 | > 200 | 29.5 µM | –
80 | Cc1cc2n(n1)C(C)(C)C(=O)Nc1ccc(Cl)cc1-2 | > 49 | 33.9 µM | –
81 | CC(C)(C)OC(=O)N(CCNS(=O)(=O)c1cccc2cnccc12)CCC(=O)ON1C(=O)CCC1=O | > 200 | > 200 µM | –
82 | O=C(CC(O)(C(F)(F)Cl)C(F)(F)Cl)CC(O)(C(F)(F)Cl)C(F)(F)Cl | – | – | inactive
83 | C=CCC1(OCc2ccccc2)C(=O)C(=O)OC1C1COC(C)(C)O1 (centres undefined) | > 200 | > 200 µM | –
84 | O=C1/C(=C\c2ccc(Br)cc2)CCCc2ccccc21 | > 200 | 22.4 µM | –
